The structures appear in SMILES notation.

For this experiment, the target named is Heat shock protein HSP90 (Homo sapiens, UniProt P07900+P08238). The experiment in a line: Binding affinity towards Heat shock protein HSP 90-alpha inhibitor. Type of experiment: protein assay.

`CO[C@H]1/C=C\C=C(/C)C(=O)NC2=CC(=O)C(NCCCCCCO/C(S)=N\c3ccc(-c4c5ccc(=O)cc-5oc5cc(O)ccc45)c(C(=O)O)c3)=C(C[C@@H](C)C[C@H](OC)[C@@H](O)[C@@H](C)/C=C(\C)[C@@H]1OC(N)=O)C2=O` yielded a Kds of 23.3 nM.

As for `CO[C@H]1/C=C\C=C(/C)C(=O)NC2=CC(=O)C(NCCNC(=O)CCC3=N/C(=C\c4c(C)cc(C)n4B(F)F)C=C3)=C(C[C@@H](C)C[C@H](OC)[C@@H](O)[C@@H](C)/C=C(\C)[C@@H]1OC(N)=O)C2=O`, the Kds was found to be 33.8 nM.

The values above are taken from ChEMBL document CHEMBL1136353, “Synthesis of novel fluorescent probes for the molecular chaperone Hsp90” (Bioorg Med Chem Lett, 2003).
